ChEMBL document CHEMBL1201862, “PubChem BioAssay data set” (2004)
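Dose response: 5 concentrations. Exposure: 48 h. Format: 96-well plates. Endpoint: linear interpolation; highest concentration if not reached. GI50: concentration for 50% inhibition of growth.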 Calls of active or inactive are those of the source. Cut-off read from the data, not from the text of the source: active = GI50 up to about 1.1 µM and inactive = higher.

Experiments:
Test in all cases: NCI tumour cell line growth inhibition, 48 h
[1] = system: A498
[2] = system: A549
[3] = system: ACHN
[4] = system: CCRF-CEM
[5] = system: EKVX
[6] = system: HCC 2998
[7] = system: HOP-62
[8] = system: HT-29
[9] = system: IGROV-1
[10] = system: Malme-3M
[11] = system: OVCAR-3
[12] = system: SF-268
[13] = system: SK-MEL-28
[14] = system: SK-MEL-5
[15] = system: SNB-75
[16] = system: NCI-H226
[17] = system: LOX IMVI

| Structure (SMILES) | GI50 [1] | GI50 [2] | GI50 [3] | GI50 [4] | GI50 [5] | GI50 [6] | GI50 [7] | GI50 [8] | GI50 [9] | GI50 [10] | GI50 [11] | GI50 [12] | GI50 [13] | GI50 [14] | GI50 [15] | GI50 [16] | GI50 [17] |
| --- | --- | --- | --- | --- | --- | --- | --- | --- | --- | --- | --- | --- | --- | --- | --- | --- | --- |
| C/C1=N\[N-]C(=O)c2ccccc2C(=O)N/N=C(\C)c2cccc1n2.O=[N+]([O-])[O-].[Zn+2] | > 100 µM (inactive) | > 100 µM (inactive) | > 100 µM (inactive) | > 100 µM (inactive) | > 100 µM (inactive) | > 100 µM (inactive) | > 100 µM (inactive) | > 100 µM (inactive) | > 100 µM (inactive) | > 100 µM (inactive) | > 100 µM (inactive) | > 100 µM (inactive) | > 100 µM (inactive) | > 100 µM (inactive) | 19.5 µM (inactive) | – | – |
| N#CC(C(=O)/C(=N\NC(N)=O)C(C#N)c1ccccc1)c1ccccc1 (stereo unspecified) | > 100 µM (inactive) | > 100 µM (inactive) | > 100 µM (inactive) | > 100 µM (inactive) | > 100 µM (inactive) | > 100 µM (inactive) | > 100 µM (inactive) | > 100 µM (inactive) | > 100 µM (inactive) | > 100 µM (inactive) | > 100 µM (inactive) | > 100 µM (inactive) | > 100 µM (inactive) | – | > 100 µM (inactive) | > 100 µM (inactive) | – |
| COC(=O)C1CC/C(=N/C2c3ccccc3-c3ccccc32)N1 (stereo unspecified) | > 100 µM (inactive) | > 100 µM (inactive) | > 100 µM (inactive) | 58.6 µM (inactive) | > 100 µM (inactive) | 57.9 µM (inactive) | > 100 µM (inactive) | > 100 µM (inactive) | > 100 µM (inactive) | > 100 µM (inactive) | 74.8 µM (inactive) | > 100 µM (inactive) | > 100 µM (inactive) | – | 58.6 µM (inactive) | > 100 µM (inactive) | > 10 µM (inactive) |
| NC(=O)c1cccc([N+](=O)[O-])c1 | > 100 µM (inactive) | > 100 µM (inactive) | – | > 100 µM (inactive) | > 100 µM (inactive) | > 100 µM (inactive) | > 100 µM (inactive) | > 100 µM (inactive) | > 100 µM (inactive) | > 100 µM (inactive) | > 100 µM (inactive) | > 100 µM (inactive) | > 100 µM (inactive) | > 100 µM (inactive) | > 100 µM (inactive) | > 100 µM (inactive) | > 100 µM (inactive) |
| COc1ccc2c(c1)CCC(OS(=O)(=O)CC13CCC(CC1=O)C3(C)C)C2=O (stereo unspecified) | 14.8 µM (inactive) | 26.4 µM (inactive) | 35.8 µM (inactive) | 18.8 µM (inactive) | > 100 µM (inactive) | 23 µM (inactive) | 29.2 µM (inactive) | – | – | 43 µM (inactive) | 25.7 µM (inactive) | 22.1 µM (inactive) | 36.3 µM (inactive) | 17.5 µM (inactive) | 31.1 µM (inactive) | 29 µM (inactive) | 15.6 µM (inactive) |
| COc1cc2cc3c4c(cc(OC)c(OC)c4c2cc1OC)CCN3C(=O)OCCBr | 19.8 µM (inactive) | 28 µM (inactive) | 50.9 µM (inactive) | 20.6 µM (inactive) | 10.1 µM (inactive) | 42.3 µM (inactive) | – | 50.1 µM (inactive) | > 100 µM (inactive) | > 100 µM (inactive) | > 100 µM (inactive) | > 100 µM (inactive) | > 100 µM (inactive) | 53.1 µM (inactive) | 46 µM (inactive) | 0.259 µM (active) | 32.7 µM (inactive) |
| CC1=C2C(=O)C(C)(C)C=C2C(=O)[C@](C)(O)C12CC2 [DEHYDROILLUDIN M] | > 1 µM (active) | > 1 µM (active) | 0.552 µM (active) | > 1 µM (active) | > 1 µM (active) | > 0.815 µM (active) | > 1 µM (active) | 0.248 µM (active) | > 1 µM (active) | 0.634 µM (active) | > 1 µM (active) | 0.521 µM (active) | > 1 µM (active) | 0.296 µM (active) | > 1 µM (active) | > 1 µM (active) | 0.402 µM (active) |
| CCN(CC)CCNc1ccc2nnn3c4ccc(C)cc4c(=O)c1c23 | 15.5 µM (inactive) | 5.37 µM (inactive) | 5.45 µM (inactive) | 4.16 µM (inactive) | – | – | 14.9 µM (inactive) | 4.14 µM (inactive) | 10.4 µM (inactive) | 12.6 µM (inactive) | 13.2 µM (inactive) | 10.2 µM (inactive) | 15.5 µM (inactive) | 10.7 µM (inactive) | 10.8 µM (inactive) | 10.8 µM (inactive) | 3.61 µM (inactive) |
| O=S(=O)(c1ccccc1)C1CN2OC1(S(=O)(=O)c1ccccc1)CC21CCCCC1 (stereo unspecified) | – | > 100 µM (inactive) | > 100 µM (inactive) | > 100 µM (inactive) | > 100 µM (inactive) | > 100 µM (inactive) | > 100 µM (inactive) | > 100 µM (inactive) | > 100 µM (inactive) | > 100 µM (inactive) | > 100 µM (inactive) | > 100 µM (inactive) | > 100 µM (inactive) | – | > 100 µM (inactive) | > 100 µM (inactive) | > 100 µM (inactive) |
| COc1ccc2c(c1)C1C(CO2)C(c2ccccc2)=NN1c1ccccc1 (stereo unspecified) | > 100 µM (inactive) | > 100 µM (inactive) | > 100 µM (inactive) | > 100 µM (inactive) | > 100 µM (inactive) | > 100 µM (inactive) | > 100 µM (inactive) | > 100 µM (inactive) | > 100 µM (inactive) | > 100 µM (inactive) | > 100 µM (inactive) | 89.3 µM (inactive) | 70.3 µM (inactive) | > 100 µM (inactive) | 0.441 µM (active) | – | > 100 µM (inactive) |
| O=C1C2C(C(=O)N1c1ccccc1)C1(Br)c3ccccc3C2(Br)C2C(=O)N(c3ccccc3)C(=O)C21 (stereo unspecified) | 21.9 µM (inactive) | 28.1 µM (inactive) | 18.1 µM (inactive) | 26.6 µM (inactive) | > 31.6 µM (inactive) | 15 µM (inactive) | > 10 µM (inactive) | 27.8 µM (inactive) | > 31.6 µM (inactive) | 30.1 µM (inactive) | > 31.6 µM (inactive) | 27.7 µM (inactive) | > 31.6 µM (inactive) | > 31.6 µM (inactive) | 13 µM (inactive) | > 31.6 µM (inactive) | > 31.6 µM (inactive) |
| Cc1[nH]c(=O)nc(N/N=C/c2ccc(O)cc2)c1C(=O)Nc1ccc(Cl)cc1 | > 100 µM (inactive) | > 100 µM (inactive) | > 100 µM (inactive) | > 100 µM (inactive) | > 100 µM (inactive) | > 100 µM (inactive) | > 100 µM (inactive) | – | > 100 µM (inactive) | > 100 µM (inactive) | > 100 µM (inactive) | > 100 µM (inactive) | > 100 µM (inactive) | 88.1 µM (inactive) | > 100 µM (inactive) | 65.2 µM (inactive) | – |
| CC(C)(C)C1CCC(CI)(N=[N+]=[N-])CC1 (stereo unspecified) | > 100 µM (inactive) | > 100 µM (inactive) | > 100 µM (inactive) | > 100 µM (inactive) | > 100 µM (inactive) | > 100 µM (inactive) | > 100 µM (inactive) | > 100 µM (inactive) | > 100 µM (inactive) | > 100 µM (inactive) | > 100 µM (inactive) | > 100 µM (inactive) | – | > 100 µM (inactive) | > 100 µM (inactive) | > 100 µM (inactive) | – |
| O=C1OC(c2ccc(Cl)c3ccccc23)c2ccccc21 (stereo unspecified) | > 100 µM (inactive) | 76.7 µM (inactive) | > 100 µM (inactive) | 91.6 µM (inactive) | > 100 µM (inactive) | 91.2 µM (inactive) | > 100 µM (inactive) | 55.3 µM (inactive) | > 100 µM (inactive) | > 100 µM (inactive) | – | > 100 µM (inactive) | > 100 µM (inactive) | > 100 µM (inactive) | 6.07 µM (inactive) | – | – |
| COc1cc2c(cc1OC)C(O)[C@H](Br)C(C)(C)O2 (stereo partly specified) | – | > 100 µM (inactive) | > 100 µM (inactive) | > 100 µM (inactive) | > 100 µM (inactive) | > 100 µM (inactive) | > 100 µM (inactive) | > 100 µM (inactive) | > 100 µM (inactive) | > 100 µM (inactive) | > 100 µM (inactive) | > 100 µM (inactive) | > 100 µM (inactive) | > 100 µM (inactive) | 84.3 µM (inactive) | > 100 µM (inactive) | > 100 µM (inactive) |
| c1ccc(CN(Cn2cccn2)Cn2cccn2)nc1 | > 100 µM (inactive) | > 100 µM (inactive) | > 100 µM (inactive) | > 100 µM (inactive) | > 100 µM (inactive) | – | > 100 µM (inactive) | – | – | – | > 100 µM (inactive) | > 100 µM (inactive) | > 100 µM (inactive) | > 100 µM (inactive) | > 100 µM (inactive) | – | > 100 µM (inactive) |
| CC(C)N(C(C)C)P(OCCC#N)OC1CC(n2cnc3c(=O)[nH]cnc32)OC1COC(=O)NCCCCCCNC(=O)OC(C)(C)c1ccc(-c2ccccc2)cc1 (stereo unspecified) | > 100 µM (inactive) | 39.4 µM (inactive) | 38.7 µM (inactive) | 18.5 µM (inactive) | > 100 µM (inactive) | 25.5 µM (inactive) | 23.4 µM (inactive) | 43.2 µM (inactive) | 17 µM (inactive) | 32.2 µM (inactive) | – | 29.6 µM (inactive) | 34.3 µM (inactive) | 24.8 µM (inactive) | 24.3 µM (inactive) | 23.9 µM (inactive) | 18.2 µM (inactive) |
